Reference: article PMC8942522 (Journal of Enzyme Inhibition and Medicinal Chemistry, 2022)
Several values for one entry are separate records, joined by “and”; a condition that tells them apart may be missing. Equal values may be shown once. Read-outs that look alike come from different tables or passages of the source.

Assays:
[1] = test system: redox biosensor hGrx1-roGFP2 in bloodstream T. b. brucei; assay: Redox assay with hGrx1-roGFP2 reporter cell line; assay type: cell-based, T. brucei brucei (strain 427, cell line 449)
[2] = test system: intracellular amastigotes of T. cruzi; assay: Intracellular T. cruzi in U-2 OS cells; assay type: cell-based, T. cruzi (strain Y); settings: for selectivity index [SI vs. U-2 OS], T. cruzi: CC50 U-2 OS / EC50 T. cruzi; for EC50: read-out: Cytotoxicity EC50 T. cruzi, intracellular amastigotes in U-2 OS, 72 h; for selectivity index [SI vs. THP-1], T. cruzi: CC50 THP-1 / EC50 T. cruzi
TcTryS = target: T1, TcTryS (Trypanosoma cruzi, UniProt Q9GT49); assay: TryS inhibition assay; assay type: biochemical; settings: for IC50: IC50 T. cruzi TryS, 1 h pre-incubation, DRC, values italic and bold in Table 1; for % TryS inhibition at 25 μM, T. cruzi: mean ± SD, NA = not active (inhibition ≤ 0.0 ± 5.0%)
T1 sequence (Q9GT49 1-647): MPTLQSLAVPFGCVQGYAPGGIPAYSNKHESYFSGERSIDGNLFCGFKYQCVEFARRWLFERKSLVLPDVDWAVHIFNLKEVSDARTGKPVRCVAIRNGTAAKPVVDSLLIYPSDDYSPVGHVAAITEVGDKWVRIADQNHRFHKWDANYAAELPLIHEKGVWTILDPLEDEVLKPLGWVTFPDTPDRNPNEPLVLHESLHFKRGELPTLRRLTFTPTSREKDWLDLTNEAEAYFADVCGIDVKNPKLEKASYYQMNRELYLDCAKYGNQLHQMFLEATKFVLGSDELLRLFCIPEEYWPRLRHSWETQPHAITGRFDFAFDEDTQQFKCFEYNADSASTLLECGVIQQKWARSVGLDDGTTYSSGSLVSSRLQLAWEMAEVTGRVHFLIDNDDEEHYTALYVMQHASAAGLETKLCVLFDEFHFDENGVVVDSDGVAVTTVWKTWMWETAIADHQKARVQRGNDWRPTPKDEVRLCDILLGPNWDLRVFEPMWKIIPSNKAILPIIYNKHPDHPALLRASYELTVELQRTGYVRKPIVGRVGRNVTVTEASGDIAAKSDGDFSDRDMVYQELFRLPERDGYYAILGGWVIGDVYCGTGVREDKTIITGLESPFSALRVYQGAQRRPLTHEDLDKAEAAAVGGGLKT

LiTryS = target: T2, LiTryS (Leishmania infantum, UniProt A4I2Z3); assay: TryS inhibition assay; assay type: biochemical; settings: mean ± SD, NA = not active (inhibition ≤ 0.0 ± 5.0%)
T2 sequence (A4I2Z3 1-652): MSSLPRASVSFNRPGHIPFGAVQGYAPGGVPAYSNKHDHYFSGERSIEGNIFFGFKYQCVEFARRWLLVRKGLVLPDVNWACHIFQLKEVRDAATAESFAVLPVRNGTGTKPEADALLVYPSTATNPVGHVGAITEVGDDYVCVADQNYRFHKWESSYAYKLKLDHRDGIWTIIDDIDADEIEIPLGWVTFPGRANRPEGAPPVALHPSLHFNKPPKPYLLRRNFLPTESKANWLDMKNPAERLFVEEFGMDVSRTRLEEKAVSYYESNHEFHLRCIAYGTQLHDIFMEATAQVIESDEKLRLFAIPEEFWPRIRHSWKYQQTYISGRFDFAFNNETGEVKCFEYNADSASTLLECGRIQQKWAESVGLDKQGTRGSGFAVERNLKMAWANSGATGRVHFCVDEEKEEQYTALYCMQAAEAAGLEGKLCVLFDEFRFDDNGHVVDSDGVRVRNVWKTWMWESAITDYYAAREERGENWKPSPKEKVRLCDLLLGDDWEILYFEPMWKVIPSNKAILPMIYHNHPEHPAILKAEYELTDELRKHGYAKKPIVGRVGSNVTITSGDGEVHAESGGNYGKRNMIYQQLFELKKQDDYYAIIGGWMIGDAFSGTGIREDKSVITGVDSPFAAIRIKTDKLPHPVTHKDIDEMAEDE

bloodstream T. brucei = assay: Cytotoxicity against bloodstream T. brucei; assay type: cell-based, T. brucei (strain 427, cell line 449); settings: CC50 THP-1 / EC50 T. brucei
TbTryS [3] = assay type: biochemical, Trypanosoma brucei; settings: 1 h, n = 8; for TryS inhibition ± SD, mass spectrometry sample B: IAM 15 mM, no Ebselen
[4] = test system: intracellular amastigotes of L. donovani; assay: Intracellular L. donovani in THP-1 cells; settings: for selectivity index [SI vs. THP-1], L. donovani: CC50 THP-1 / EC50 L. donovani
TbTryS [5] = assay: Dilution and reduction-based; assay type: biochemical, Trypanosoma brucei; settings: Ebselen 10 µM 1 h, n = 6
TbTryS [6] = assay: Time-dependent inhibition assay; assay type: biochemical, Trypanosoma brucei; settings: n = 6
[7] = target: T3, TryS from Trypanosoma brucei (TbTryS) (Trypanosoma brucei brucei, UniProt Q586P2); assay: TryS inhibition assay; assay type: biochemical; settings: mean ± SD, NA = not active (inhibition ≤ 0.0 ± 5.0%)
T3 sequence (Q586P2 1-627): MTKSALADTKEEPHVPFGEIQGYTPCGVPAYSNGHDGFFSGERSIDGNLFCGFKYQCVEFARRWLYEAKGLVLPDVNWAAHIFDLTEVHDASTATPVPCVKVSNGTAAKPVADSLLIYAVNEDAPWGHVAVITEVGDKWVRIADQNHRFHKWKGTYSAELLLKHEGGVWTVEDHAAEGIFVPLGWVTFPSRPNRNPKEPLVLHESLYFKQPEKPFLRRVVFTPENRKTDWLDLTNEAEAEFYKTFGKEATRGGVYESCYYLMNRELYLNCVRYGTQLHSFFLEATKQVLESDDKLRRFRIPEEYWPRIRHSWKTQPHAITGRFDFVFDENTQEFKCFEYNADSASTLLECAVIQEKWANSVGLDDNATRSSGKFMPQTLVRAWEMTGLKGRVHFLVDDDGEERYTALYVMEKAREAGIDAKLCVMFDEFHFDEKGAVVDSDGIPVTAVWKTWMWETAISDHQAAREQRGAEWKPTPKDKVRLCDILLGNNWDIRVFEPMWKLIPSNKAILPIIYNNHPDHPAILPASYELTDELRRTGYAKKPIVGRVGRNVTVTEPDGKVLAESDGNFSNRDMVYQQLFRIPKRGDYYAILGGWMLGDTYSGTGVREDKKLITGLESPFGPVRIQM

For `Clc1ccc(C(c2ccc(Cl)cc2)n2cc[n+](CC(OCc3ccc(Cl)cc3Cl)c3ccc(Cl)cc3Cl)c2)cc1` (stereo not shown) [Compound 7, Calmidazolium chloride], the “effect on parasites at 2× EC50 in redox assay” value ([1]; 2× EC50, 4 h) was “massive cell death”, the “selectivity index [SI vs. U-2 OS], T. cruzi” value [2] was 1.1 and the EC50 [2] was 1.6 ± 0.1 µM. The IC50 (TcTryS) was 2.7 ± 0.5 µM.
In the case of `O=C1Cc2cc(-c3csc(NCCc4cccs4)n3)cc3c2N1CCC3` [Compound 22], the “% TryS inhibition at 25 μM, L. infantum” value (LiTryS; listed as 46, 25 µM) is reported as 74% and the “% TryS inhibition at 25 μM, T. cruzi” value (TcTryS) is reported as 12.9 ± 6.1%.
With `NC(Cc1cc(O)c(O)cc1O)C(=O)O` (racemic) [Compound 3, 6-Hydroxy-DL-DOPA] the “selectivity index [SI vs. THP-1], T. cruzi” value [2] was over 2.7, the “selectivity index [SI vs. U-2 OS], T. cruzi” value [2] was 2.7 and the EC50 [2] was 34 µM and ~34 µM.
`CCN(CC)C(=O)COC(=O)c1c(NC(C)=O)sc2c1CCCC2` [Compound 19] was tested, and the “selectivity index [SI vs. THP-1], T. brucei” value (“selectivity index … T. brucei” for short) (bloodstream T. brucei) was over 4 and the “% TryS inhibition at 25 μM, T. cruzi” value (TcTryS) was 13.3 ± 3.3%.
With `N=C1Sc2ccccc2C2=NCCCN12` [Compound 9, PD 404,182] the “% TryS inhibition at 25 μM, L. infantum” value (LiTryS) was 8.9 ± 5.9% and the “% TryS inhibition at 25 μM, T. cruzi” value (TcTryS) was 10.9 ± 5.6%.
`O=C(Cn1ccnc1[N+](=O)[O-])NCc1ccccc1` [Benznidazole] gave an EC100 ([2]; reference drug concentration used in T. cruzi assay) of 400 µM.
`NC(=O)CI` [IAM, iodoacetamide] was tested, and the “TryS inhibition ± SD, mass spectrometry sample B” value (TbTryS [3]) was 20 ± 9% and the “TryS inhibition ± SD, mass spectrometry sample B” value (TbTryS [3]; listed as iodoacetamide) was “negligible effects on TryS activity”.
For `O=c1c2ccccc2[se]n1-c1ccccc1` [Compound 5, Ebselen], the “selectivity index … T. brucei” value (bloodstream T. brucei) was 11, the EC50 ([4]; Leishmania donovani, THP-1, 96 h, read-out: Cytotoxicity EC50 L. donovani) was over 100 µM and the “TryS inhibition ± SD, irreversible inhibition assay, sample A” value (TbTryS [5]; buffer exchanged, DTT 5 mM 30 min) was 89 ± 8.5%. The “TryS inhibition ± SD, irreversible inhibition assay, sample B” value (TbTryS [5]; buffer exchanged, no DTT) was 97.0 ± 5.0%, the “TryS inhibition ± SD, irreversible inhibition assay, sample C” value (TbTryS [5]; no buffer exchange, no DTT) was 100 ± 9% and the “oxidation of the biosensor” value ([1]; 18 µM (2-fold its EC50), 4 h, reverted by DTT 1 mM 20 min) was 48%. The “TryS inhibition ± SD, mass spectrometry sample A” value (TbTryS [3]; Ebselen 20 µM) was 100 ± 7%, the “TryS inhibition ± SD, mass spectrometry sample A (value in parenthesis)” value (TbTryS [3]; Ebselen 50 µM) was 96 ± 8% and the “selectivity index [SI vs. THP-1], T. cruzi” value [2] was over 36. For the same compound, the “selectivity index [SI vs. U-2 OS], T. cruzi” value [2] was 2.4, the EC50 [2] was 2.8 ± 0.1 µM and the IC50 (TcTryS) was 13.8 ± 1.5 µM. For the same compound, the “TryS inhibition ± SD, time-dependent assay, sample A” value (TbTryS [6]; Ebselen 5 µM pre-incubated 1 h with TbTryS, reaction started with MM) was 43.6 ± 4.5% and the “TryS inhibition ± SD, time-dependent assay, sample C” value (TbTryS [6]; Ebselen 5 µM, no pre-incubation) was 1.8 ± 4.2%.
With `O=C(O)c1cc[c]([Hg][Cl])cc1` [Compound 2, 4-Chloromercuribenzoic acid] the “% TryS inhibition at 25 μM, T. cruzi” value (TcTryS) was 32.0 ± 9.7%.
With `C[C@@H]1[C@H](O)[C@@H](C)/C=C/C=C/C=C/C=C/C=C/C=C/C=C/[C@H](O[C@@H]2O[C@H](C)[C@@H](O)[C@H](N)[C@@H]2O)C[C@@H]2O[C@](O)(C[C@@H](O)C[C@@H](O)[C@H](O)CC[C@@H](O)C[C@@H](O)CC(=O)O[C@H]1C)C[C@H](O)[C@H]2C(=O)O` [Amphotericin B] the “selectivity index [SI vs. THP-1], L. donovani” value (from here on “selectivity index … L. donovani”) [4] was over 22.
For `CCCC[P+](CCCC)(CCCC)Cc1ccc(NC(=O)[C@H](Cc2ccc3ccccc3c2)NC(=NC2CCCCC2)NC2CCCCC2)cc1.Cl.[Cl-]` [Compound 13, WIN 64338 hydrochloride], the “selectivity index … L. donovani” value [4] was 1.9, the “% TryS inhibition at 25 μM, T. brucei” value [7] was 9.2 ± 7.4% and the “% TryS inhibition at 25 μM, L. infantum” value (LiTryS) was 70.9 ± 6.8%. The “% TryS inhibition at 25 μM, T. cruzi” value (TcTryS) was 25.9 ± 6.5%.
`C[n+]1cc2c3c(ccc2c2ccc4cc5c(cc4c21)OCO5)OCO3` [Compound 6, Sanguinarine chloride] was tested, and the “selectivity index … L. donovani” value [4] was 2, the “selectivity index [SI vs. THP-1], T. cruzi” value [2] was 9.5 and the “selectivity index [SI vs. U-2 OS], T. cruzi” value [2] was 1.3. For the same compound, the EC50 [2] was 0.37 ± 0.11 µM and the IC50 (TcTryS) was 40 ± 1.2 µM.
Compound `O=C(O)C1=CC(=C(c2ccc(O)c(C(=O)O)c2)c2ccc(O)c(C(=O)O)c2)C=CC1=O` [Compound 1, Aurintricarboxylic acid] has an inhibition at 25 µM (TcTryS; read-out: % TryS inhibition at 25 μM, T. cruzi) of 5.5 ± 2.8%.
With `O=C(CCc1c(-c2ccc(F)cc2)[nH]c2ccc(F)cc12)N1CCN(c2ccncc2)CC1` [Compound 14] the “selectivity index … T. brucei” value (bloodstream T. brucei) was 11, the “% TryS inhibition at 25 μM, L. infantum” value (LiTryS) was 16.8 ± 17.9% and the “% TryS inhibition at 25 μM, T. cruzi” value (TcTryS) was 7.1 ± 4.0%.
`Cl.Nc1nc(NCC2CCC(CNS(=O)(=O)c3cccc4ccccc34)CC2)nc2ccccc12` (stereo not shown) [Compound 11, CGP 71683 hydrochloride] was tested, and the “selectivity index … L. donovani” value [4] was 1.1, the “% TryS inhibition at 25 μM, T. brucei” value [7] was 14.4 ± 8.2% and the “% TryS inhibition at 25 μM, T. cruzi” value (TcTryS) was 34.7 ± 7.6%.
For `Cc1nc(C(=O)N2CCCC2c2ccc(F)c(F)c2)c(=O)[nH]c1C` (stereo not shown) [Compound 18], the “% TryS inhibition at 25 μM, L. infantum” value (LiTryS) was 28.5 ± 11.1%.
